Laboratory results published in ChEMBL document CHEMBL1153930, “(-)-Dibromophakellin: an alpha2B adrenoceptor agonist isolated from the Australian marine sponge, Acanthella costata” (Bioorg Med Chem, 2009).
Activity calls are given as the source filed them. The calls are words filed in the database; no cut-off is given here.

Assays:
[1] = target: T1, Alpha-2B adrenergic receptor (Homo sapiens) (UniProt P18089); test: Agonist activity at human adrenergic alpha2B receptor expressed in HEK293 cells coexpressing Gqi5 protein up to 83 uM by FLIPR assay; type: functional, cell-based
T1 sequence (whole entry): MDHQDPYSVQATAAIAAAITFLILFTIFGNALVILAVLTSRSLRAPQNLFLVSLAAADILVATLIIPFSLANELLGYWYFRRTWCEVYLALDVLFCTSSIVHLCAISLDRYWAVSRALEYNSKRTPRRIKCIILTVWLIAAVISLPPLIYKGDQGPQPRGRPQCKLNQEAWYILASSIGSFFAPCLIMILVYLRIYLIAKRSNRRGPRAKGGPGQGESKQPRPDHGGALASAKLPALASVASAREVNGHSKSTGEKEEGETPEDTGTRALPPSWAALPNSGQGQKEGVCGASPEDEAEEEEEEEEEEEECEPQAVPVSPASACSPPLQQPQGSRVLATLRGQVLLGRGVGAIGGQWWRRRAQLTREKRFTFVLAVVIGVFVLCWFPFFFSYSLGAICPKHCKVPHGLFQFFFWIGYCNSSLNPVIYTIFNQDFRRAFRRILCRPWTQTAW

[2] = target: T2, Alpha-2B adrenergic receptor (Homo sapiens, UniProt P18089); test: Agonist activity at human adrenergic alpha2B receptor expressed in HEK293 cells coexpressing Gqi5 protein by FLIPR assay; type: functional, cell-based
T2 sequence (P18089 whole entry): T1 sequence (whole entry)

| SMILES | Activity [1] | EC50 [2] [µM] |
| --- | --- | --- |
| NC1=N[C@]23CCCN2C(=O)c2cc(Br)cn2[C@@H]3N1 | inactive |  |
| NC1=N[C@]23CCCN2C(=O)c2cccn2[C@@H]3N1 | inactive |  |
| NC1=N[C@H]2n3c(cc(Br)c3Br)C(=O)N3CCC[C@]23N1 [DIBROMOPHAKELLIN] |  | 4.2 |

Results, then the compound that gave them:

| Activity [1] | EC50 [2] [µM] | SMILES |
| --- | --- | --- |
| inactive |  | NC1=N[C@]23CCCN2C(=O)c2cc(-c4ccccc4)c(-c4ccccc4)n2[C@@H]3N1 |
| inactive |  | NC1=N[C@]23CCCN2C(=O)c2cc(Br)c(-c4ccccc4)n2[C@@H]3N1 |
